B1: recombinant form of the large extracellular loop from CD81: recombinant large extracellular loop of CD81, which binds E2 and acts as a receptor for HCV (protein)
chain: FVNKDQIAKDVKQFYDQALQQAVVDDDANNAKAVVKTFHETLDCCGSSTLTALTTSVLKNNLCPSGSNIISNLFKEDCHQKIDDLFSGK
B2: large extracellular loop of CD9: large extracellular loop of CD9, a related tetraspanin (control) (protein)
chain: SHKDEVIKEVQEFYKDTYNKLKTKDEPQRETLKAIHYALNCCGLAGGVEQFISDICPKKDVLETFTVKSCPDAIKEVFDNKFHI

Tests used:
Type in all cases: cell-based, hepatitis C virus
HCVcc (FL-J6/JFH++) = assay: Drug inhibition of HCVcc RNA replication in infected Huh-7.5 cells (Taqman); conditions: 48 hour post-infection; Huh-7.5 cells infected with FL-J6/JFH++; HCVcc RNA by Taqman
Protocol: Parallel cultures of Huh-7.5 cells were infected with FL-J6/JFH++ for 6 hours. Following removal of the inocula, cells were washed with PBS and fed with complete growth medium containing the indicated concentrations of antiviral drugs or a DMSO carrier control. RNAs were extracted after 2 days and the amount of accumulated HCVcc RNA quantitated by Taqman.
A panel of experimental HCV antiviral compounds were examined for their ability to inhibit RNA replication at 48 hour post-infection with HCVcc. One of these compounds, 2′-C-methyladenosine (Merck) is a nucleoside analog that inhibits the HCV RNA polymerase. Three other compounds (PI-1, Vertex; BILN2061, Boerhinger Ingelheim; and SCH6, Schering-Plough) target the serine protease activity of NS3 by competitive binding. […] For the polymerase inhibitor, the higher specific activity is likely due to the fact that we measured the accumulation of nascent RNAs post-infection, whereas replicon-based assays examine the decay of RNA after inhibiting established replication. The reduced activities of the protease inhibitors likely reflect reduced affinities of these drugs, developed to genotype 1 proteases, to bind to the JFH NS3 protein.

HCVcc = assay: Effect of culture additives on HCVcc production (TCID50 assay)
Protocol: The procedure for immunohistochemical staining for NS5A has been adapted to determine the infectious virus concentration within samples. In one system, virus-containing samples were subjected to serial 10-fold dilutions (typically, 10^−1 to 10^−6) in complete growth medium. Each dilution was then used to infect multiple wells of Huh-7.5 cells seeded in 96-well plates. Following 2 or 3 day incubation, the cells are fixed and subjected to immunohistochemical staining for NS5A expression, as above. The assay plate was then scored for the number of infected wells (i.e. at least one infected cell per well) for each dilution (FIG. 3) and the virus titer was then calculated as the 50% end-point tissue-culture infectious dose per ml (TCID50/ml) according to the statistical method of Reed and Muench (Am. J. Hyg. 27:493-497 (1938)). The sensitivity of this assay was determined by volume of the lowest dilution and the number of replicates tested, and was typically 15.8 TCID50s/ml.
It was of interest to ascertain culturing conditions that increase the titer of infectious HCVcc. A large number of cell culture conditions were tested for their effect on HCVcc production. These included the choice of cell culture media, amount and type of fetal calf serum, as well as the addition of various additive compounds. […] For example, the following titers were recorded: 3.10×10^6 TCID50 (25 mM N-acetylcysteine) vs. 1.06×10^6 TCID50 (5 mM N-acetylcysteine) vs. 2.65×10^5 TCID50 (no N-acetylcysteine). Thus, the use of this compound in HCV-containing cell cultures permits a significant increase in yield of infectious HCVcc. Conditions have also been established for serum-free propagation of Huh-7.5 cells and HCVcc infection and production. These conditions include, but are not limited to, Dulbecco's Modified Eagle's Medium (DMEM)/F12 medium containing 10 μg/ml transferrin, 2 μg/ml insulin, 7.6 μM free fatty acids, 0.3 μM selenium, 0.1 μM hydrocortisone, 0.20% bovine serum albumin, and 20 ng/ml epidermal growth factor.

HCVcc (FL-J6/JFH) = assay: Blocking of HCVcc infection of naïve Huh-7.5 by soluble recombinant CD81 or CD9 (NS5A immunostaining); conditions: 10 μg/ml, 1 hour at 37° C., naïve Huh-7.5, day 3
Protocol: A) Independent samples of FL-J6/JFH++ (3.16×10^4 TCID50/ml) were mixed with the indicated amounts of recombinant human monoclonal antibodies (IgGl) against HCV E2 (open circles) or dengue-3 E proteins (filled triangle). Following a 1 hour incubation at 37° C., the virus titers of each sample were determined as described for FIG. 3. Shown are the average±s.d. of three independent samples. The amount of input virus is indicated by the dashed line. B) Samples of FL-J6/JFH were incubated for 1 hour at 37° C. with 10 μg/ml of soluble recombinant CD81 or CD9 and used to infect naïve Huh-7.5. Infections were monitored at day 3 by immunostaining as described in FIG. 2B. C). FL-J6/JFH was used to infect standard HepG2 cells or HepG2 cells engineered to express human CD81. Infections were monitored as described in FIG. 2B.
To further examine the role of E2 in HCVcc entry, virus was preincubated with a recombinant form of the large extracellular loop from CD81, which binds E2 and acts as a receptor for HCV. […] In addition, the role of CD81 in mediating HCVcc entry was examined by infecting HepG2 cells, which lack CD81 expression, or HepG2 cells that have been engineered to express human CD81.

Row | Molecule | ability to inhibit RNA replication post-infection with HCVcc (HCVcc (FL-J6/JFH++)) | HCVcc infection after preincubation of virus with recombinant protein (HCVcc (FL-J6/JFH)) | other results
1 | C[C@@]1(O)[C@H](O)[C@@H](CO)O[C@H]1n1cnc2c(N)ncnc21 [2′-C-methyladenosine] | inhibited HCVcc replication | – | –
2 | COc1ccc2c(O[C@@H]3C[C@H]4C(=O)N[C@]5(C(=O)O)C[C@H]5/C=C\CCCCC[C@H](NC(=O)OC5CCCC5)C(=O)N4C3)cc(-c3csc(NC(C)C)n3)nc2c1 [BILN2061] | inhibited HCVcc replication | – | –
3 | CC(=O)N[C@@H](CS)C(=O)O [N-acetylcysteine] | – | – | HCVcc titer (HCVcc; 5 mM N-acetylcysteine in culture): 1.06×10^6 TCID50; HCVcc titer (HCVcc; 25 mM N-acetylcysteine in culture): 3.10×10^6 TCID50; levels of HCVcc as determined by TCID50 assay (HCVcc; additive in cell culture): consistently gave higher levels of HCVcc
4 | B1 | – | blocked HCVcc infection | –
5 | B2 | – | did not | –

From patent US7674612B2, “Infectious, chimeric hepatitis C virus, methods of producing the same and methods of use thereof” (The Rockefeller University, priority 2005, dated 2010)
